Experimental data from patent US20260365670A1, “EGFR INHIBITORS AND USES THEREOF” (DIZAL (JIANGSU) PHARMACEUTICAL CO., LTD., priority 2022, published 2026).
Read-outs that look alike come from different tables or passages of the source.

Tests used:
EGFR wild type = target: T1, EGFR wild type (Homo sapiens, UniProt P00533); experiment: Inhibition of EGFR wild type biochemical enzymatic activity (HTRF); settings: EGFR wild type, 1 mM ATP, 1 h at room temperature, read-out: IC50 @WT
T1 construct: purchased Carna Bio
How it was run: (§1)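 For IC50 determination by four-parameter logistic fit, EDTA-quenched 1 h room-temperature reactions (1 mM ATP, 1 μM TK Substrate-biotin) were read by HTRF. The 665/615 nm emission ratio after 320 nm excitation served as the activity signal.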

EGFR L858R = target: T2, EGFR L858R (Homo sapiens, UniProt P00533, L858R); experiment: Inhibition of EGFR L858R biochemical enzymatic activity (HTRF); settings: 1 mM ATP, 1 h at room temperature, read-out: IC50 @L858R
T2 construct: purchased Carna Bio
How it was run: as §1

EGFR L858R/T790M = target: T3, EGFR L858R/T790M (Homo sapiens, UniProt P00533, L858R/T790M); experiment: Inhibition of EGFR L858R/T790M biochemical enzymatic activity (HTRF); settings: EGFR L858R/T790M, 1 mM ATP, 1 h at room temperature, read-out: IC50 @L858R-T790M
T3 construct: purchased Carna Bio
How it was run: as §1

EGFR Exon19Del = target: T4, EGFR Exon19Del (Homo sapiens, UniProt P00533, DEL746-750); experiment: Inhibition of EGFR Exon19Del biochemical enzymatic activity (HTRF); settings: EGFR Exon19Del, 1 mM ATP, 1 h at room temperature, read-out: IC50 @Del19
T4 construct: purchased Carna Bio
How it was run: as §1

EGFR Exon19Del/T790M = target: T5, EGFR Exon19Del/T790M (Homo sapiens, UniProt P00533, DEL746-750/T790M); experiment: Inhibition of EGFR Exon19Del/T790M biochemical enzymatic activity (HTRF); settings: EGFR Exon19Del/T790M, 1 mM ATP, 1 h at room temperature, read-out: IC50 @Del19-T790M
T5 construct: purchased Carna Bio
How it was run: as §1

EGFR[T790M/C797S/L858R] = target: T6, EGFR[T790M/C797S/L858R] (Homo sapiens, UniProt P00533, C797S/L858R/T790M); experiment: Inhibition of EGFR[T790M/C797S/L858R] biochemical enzymatic activity (HTRF); settings: EGFR[T790M/C797S/L858R], 1 mM ATP, 1 h at room temperature, read-out: IC50 @T790M- C797S - L858R
T6 construct: purchased Carna Bio
How it was run: as §1

[1] = target: T7, EGFR[T790M/C797S/d746-750] (Homo sapiens, UniProt P00533, C797S/DEL746-750/T790M); experiment: Inhibition of EGFR[T790M/C797S/d746-750] biochemical enzymatic activity (HTRF); settings: EGFR[T790M/C797S/d746-750], 1 mM ATP, 1 h at room temperature, read-out: IC50 @T790M - C797S - Del19
T7 construct: purchased Carna Bio
How it was run: as §1

EGFR (d746-750 C797S) = target: T8, EGFR (d746-750 C797S) (Homo sapiens, UniProt P00533, C797S/DEL746-750); experiment: Inhibition of EGFR (d746-750 C797S) biochemical enzymatic activity (HTRF); settings: EGFR (d746-750 C797S), 1 mM ATP, 1 h at room temperature, read-out: IC50 @Del19-C797S
T8 construct: purchased signalchem
How it was run: as §1

EGFR (C797S L858R) = target: T9, EGFR (C797S L858R) (Homo sapiens, UniProt P00533, C797S/L858R); experiment: Inhibition of EGFR (C797S L858R) biochemical enzymatic activity (HTRF); settings: EGFR (C797S L858R), 1 mM ATP, 1 h at room temperature, read-out: IC50 @L858-C797S
T9 construct: purchased signalchem
How it was run: as §1

[2] = test system: Ba/F3 cells expressing EGFR mutations; experiment: Cell proliferation assay, Ba/F3 cells expressing EGFR mutations (CellTiter-Glo, 72 hours); assay type: cell-based
How it was run: (§2)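 Seed Ba/F3 at 5000 cells/well and PC-9 at 500 cells/well (10% FBS RPMI1640); incubate overnight; add compound dilution series; read a G0 plate; incubate; read G3; GI50 from best-fit curve.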

PC-9 = experiment: Cell proliferation assay, PC-9 cells (CellTiter-Glo, 72 hours); assay type: cell-based; settings: PC9 cells, read-out: GI50 PC9
How it was run: as §2

[3] = BaF3 cells, EGFR DEL19 - C797S, read-out: GI50 DEL19 - C797S/BaF3
[4] = BaF3 cells, EGFR DEL19 - T790-C797S, read-out: GI50 DEL19 - T790-C797S/BaF3
[5] = BaF3 cells, EGFR L858R - C797S, read-out: GI50 L858R - C797S/BaF3
[6] = BaF3 cells, EGFR L858R - T790-C797S, read-out: GI50 L858R - T790-C797S/BaF3
[7] = BaF3 cells, EGFR L858R - T790M, read-out: GI50 L858R - T790M/BaF3
[8] = BaF3 cells, EGFR L858R, read-out: GI50 L858R/BaF3
[9] = EGFR DEL19 - T790M, read-out: GI50 DEL19 - T790M

T1 sequence (P00533 25-1210): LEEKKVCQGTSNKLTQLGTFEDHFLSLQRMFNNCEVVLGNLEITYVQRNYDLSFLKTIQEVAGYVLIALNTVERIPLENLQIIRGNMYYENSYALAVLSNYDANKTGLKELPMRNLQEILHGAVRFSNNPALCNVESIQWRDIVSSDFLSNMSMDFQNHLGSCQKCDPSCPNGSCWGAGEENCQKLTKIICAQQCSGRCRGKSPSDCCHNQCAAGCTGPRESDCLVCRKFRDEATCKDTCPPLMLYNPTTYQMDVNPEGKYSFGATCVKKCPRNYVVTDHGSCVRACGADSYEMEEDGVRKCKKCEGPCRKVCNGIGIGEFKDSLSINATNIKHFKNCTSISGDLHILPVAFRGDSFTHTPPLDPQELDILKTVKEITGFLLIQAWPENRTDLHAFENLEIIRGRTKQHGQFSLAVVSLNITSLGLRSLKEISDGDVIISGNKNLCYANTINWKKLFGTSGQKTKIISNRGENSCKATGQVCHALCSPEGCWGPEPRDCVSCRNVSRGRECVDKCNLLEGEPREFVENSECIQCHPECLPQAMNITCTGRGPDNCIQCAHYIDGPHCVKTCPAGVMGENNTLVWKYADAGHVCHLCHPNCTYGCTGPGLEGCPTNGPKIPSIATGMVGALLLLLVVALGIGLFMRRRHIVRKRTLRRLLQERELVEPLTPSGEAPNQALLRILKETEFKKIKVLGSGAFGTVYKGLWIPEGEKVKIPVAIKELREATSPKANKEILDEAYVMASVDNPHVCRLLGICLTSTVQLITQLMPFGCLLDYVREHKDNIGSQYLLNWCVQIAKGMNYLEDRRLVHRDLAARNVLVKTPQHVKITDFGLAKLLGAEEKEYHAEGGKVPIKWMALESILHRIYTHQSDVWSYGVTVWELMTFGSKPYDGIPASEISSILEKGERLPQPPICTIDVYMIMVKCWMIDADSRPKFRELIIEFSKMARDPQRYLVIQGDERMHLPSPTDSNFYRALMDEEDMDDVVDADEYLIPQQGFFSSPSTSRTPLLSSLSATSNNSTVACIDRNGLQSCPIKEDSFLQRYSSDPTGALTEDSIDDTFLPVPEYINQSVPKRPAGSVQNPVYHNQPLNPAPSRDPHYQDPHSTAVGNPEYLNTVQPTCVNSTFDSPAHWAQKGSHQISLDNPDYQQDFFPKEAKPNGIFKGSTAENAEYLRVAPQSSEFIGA
T5 sequence (P00533 with tags, fused parts or gaps DEL746-750/T790M limits assumed): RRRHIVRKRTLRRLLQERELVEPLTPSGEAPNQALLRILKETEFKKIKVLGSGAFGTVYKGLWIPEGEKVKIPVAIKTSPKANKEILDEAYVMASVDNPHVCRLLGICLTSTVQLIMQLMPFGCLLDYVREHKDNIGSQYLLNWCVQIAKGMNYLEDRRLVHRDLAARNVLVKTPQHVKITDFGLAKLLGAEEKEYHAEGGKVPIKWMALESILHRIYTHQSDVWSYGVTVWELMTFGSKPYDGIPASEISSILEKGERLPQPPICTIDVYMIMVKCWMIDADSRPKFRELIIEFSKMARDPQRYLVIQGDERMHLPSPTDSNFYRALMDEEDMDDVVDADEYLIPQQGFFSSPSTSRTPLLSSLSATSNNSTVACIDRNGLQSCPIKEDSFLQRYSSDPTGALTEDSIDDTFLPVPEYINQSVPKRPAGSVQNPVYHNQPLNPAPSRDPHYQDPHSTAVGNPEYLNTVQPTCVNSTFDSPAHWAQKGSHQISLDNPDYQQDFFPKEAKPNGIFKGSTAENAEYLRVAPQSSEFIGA
T9 sequence (P00533 25-1210 C797S/L858R): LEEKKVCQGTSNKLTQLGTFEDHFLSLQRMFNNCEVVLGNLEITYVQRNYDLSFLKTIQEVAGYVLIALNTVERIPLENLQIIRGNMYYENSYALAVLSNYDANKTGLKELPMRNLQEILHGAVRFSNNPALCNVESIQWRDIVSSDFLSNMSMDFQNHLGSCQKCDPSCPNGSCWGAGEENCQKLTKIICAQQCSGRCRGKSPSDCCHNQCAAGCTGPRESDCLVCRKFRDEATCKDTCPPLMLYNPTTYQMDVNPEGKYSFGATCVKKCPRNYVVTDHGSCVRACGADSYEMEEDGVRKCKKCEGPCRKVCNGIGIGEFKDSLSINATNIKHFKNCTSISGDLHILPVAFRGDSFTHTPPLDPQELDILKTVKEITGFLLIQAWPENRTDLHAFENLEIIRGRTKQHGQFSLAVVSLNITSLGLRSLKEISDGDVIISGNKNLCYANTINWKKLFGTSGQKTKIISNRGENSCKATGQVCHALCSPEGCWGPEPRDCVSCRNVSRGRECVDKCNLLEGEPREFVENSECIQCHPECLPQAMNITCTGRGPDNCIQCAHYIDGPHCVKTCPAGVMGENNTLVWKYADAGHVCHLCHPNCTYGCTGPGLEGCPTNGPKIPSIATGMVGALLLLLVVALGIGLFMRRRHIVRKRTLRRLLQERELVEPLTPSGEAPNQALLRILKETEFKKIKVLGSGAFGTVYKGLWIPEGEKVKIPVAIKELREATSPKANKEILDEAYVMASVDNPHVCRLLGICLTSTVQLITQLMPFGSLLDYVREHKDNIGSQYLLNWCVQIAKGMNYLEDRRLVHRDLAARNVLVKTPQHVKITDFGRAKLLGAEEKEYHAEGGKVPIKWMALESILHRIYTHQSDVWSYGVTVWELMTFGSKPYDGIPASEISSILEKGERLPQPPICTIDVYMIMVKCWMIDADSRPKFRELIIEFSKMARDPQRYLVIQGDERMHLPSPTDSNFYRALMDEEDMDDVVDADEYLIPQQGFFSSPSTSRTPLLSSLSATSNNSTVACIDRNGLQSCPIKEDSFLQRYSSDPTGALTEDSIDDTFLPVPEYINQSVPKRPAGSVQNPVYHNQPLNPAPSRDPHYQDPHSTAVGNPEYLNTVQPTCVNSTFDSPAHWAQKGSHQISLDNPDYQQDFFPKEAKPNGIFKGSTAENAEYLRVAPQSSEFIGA
T7 sequence (P00533 with tags, fused parts or gaps DEL746-750/T790M/C797S limits assumed): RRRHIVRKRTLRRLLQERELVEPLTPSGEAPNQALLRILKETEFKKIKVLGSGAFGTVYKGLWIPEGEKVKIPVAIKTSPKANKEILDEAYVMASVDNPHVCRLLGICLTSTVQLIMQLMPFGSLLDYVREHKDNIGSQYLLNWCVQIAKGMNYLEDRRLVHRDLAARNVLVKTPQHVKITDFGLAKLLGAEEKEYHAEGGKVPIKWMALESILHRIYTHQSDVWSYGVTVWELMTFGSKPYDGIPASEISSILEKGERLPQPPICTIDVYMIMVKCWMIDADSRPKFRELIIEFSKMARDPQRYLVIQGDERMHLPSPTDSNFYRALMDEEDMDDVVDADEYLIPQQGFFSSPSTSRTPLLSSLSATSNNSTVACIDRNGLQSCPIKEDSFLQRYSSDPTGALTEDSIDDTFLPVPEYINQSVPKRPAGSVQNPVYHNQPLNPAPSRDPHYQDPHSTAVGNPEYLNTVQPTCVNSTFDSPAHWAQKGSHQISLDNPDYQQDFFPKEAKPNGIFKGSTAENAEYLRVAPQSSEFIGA
T8 sequence (P00533 with tags, fused parts or gaps DEL746-750/C797S limits assumed): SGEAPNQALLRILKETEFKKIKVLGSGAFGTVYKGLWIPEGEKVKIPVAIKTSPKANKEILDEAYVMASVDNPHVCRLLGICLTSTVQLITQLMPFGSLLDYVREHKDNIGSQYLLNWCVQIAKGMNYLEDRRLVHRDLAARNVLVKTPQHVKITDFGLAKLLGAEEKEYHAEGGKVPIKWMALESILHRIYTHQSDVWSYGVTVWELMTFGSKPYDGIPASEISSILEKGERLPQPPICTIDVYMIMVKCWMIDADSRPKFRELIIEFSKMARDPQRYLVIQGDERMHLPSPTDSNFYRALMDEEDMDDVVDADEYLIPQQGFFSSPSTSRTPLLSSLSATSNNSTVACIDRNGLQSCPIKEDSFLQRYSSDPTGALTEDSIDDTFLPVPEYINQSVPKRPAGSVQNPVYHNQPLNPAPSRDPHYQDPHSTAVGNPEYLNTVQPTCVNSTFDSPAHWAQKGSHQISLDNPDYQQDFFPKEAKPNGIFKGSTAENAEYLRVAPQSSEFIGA
T4 sequence (P00533 with tags, fused parts or gaps DEL746-750 limits assumed): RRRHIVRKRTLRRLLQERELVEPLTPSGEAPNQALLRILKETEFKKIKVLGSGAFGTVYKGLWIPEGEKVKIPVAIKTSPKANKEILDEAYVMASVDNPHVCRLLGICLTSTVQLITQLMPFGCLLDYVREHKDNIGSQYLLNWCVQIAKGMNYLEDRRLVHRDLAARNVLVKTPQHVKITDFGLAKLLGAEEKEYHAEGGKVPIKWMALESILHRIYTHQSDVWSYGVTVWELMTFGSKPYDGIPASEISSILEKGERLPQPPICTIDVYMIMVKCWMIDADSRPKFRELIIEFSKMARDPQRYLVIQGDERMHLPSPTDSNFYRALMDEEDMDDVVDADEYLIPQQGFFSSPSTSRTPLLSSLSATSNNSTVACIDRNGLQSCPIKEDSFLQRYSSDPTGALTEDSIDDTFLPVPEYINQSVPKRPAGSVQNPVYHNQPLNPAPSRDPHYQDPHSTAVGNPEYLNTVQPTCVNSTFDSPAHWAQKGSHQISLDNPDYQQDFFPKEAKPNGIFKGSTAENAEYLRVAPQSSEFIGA

| IC50 (EGFR wild type) | IC50 (EGFR L858R) | IC50 (EGFR L858R/T790M) | IC50 (EGFR Exon19Del) | IC50 (EGFR Exon19Del/T790M) | IC50 (EGFR[T790M/C797S/L858R]) | IC50 [1] | IC50 (EGFR (d746-750 C797S)) | IC50 (EGFR (C797S L858R)) | GI50 [2, 3] | GI50 [2, 4] | GI50 [2, 5] | GI50 [2, 6] | GI50 [2, 7] | GI50 [2, 8] | GI50 [2, 9] | GI50 (PC-9) | Structure (SMILES) |
| --- | --- | --- | --- | --- | --- | --- | --- | --- | --- | --- | --- | --- | --- | --- | --- | --- | --- |
| 734 nM | 51 nM | 9.9 nM | 13 nM | 10 nM | 5.7 nM | 6.3 nM | 7 nM | 15 nM | 2 nM | 2 nM | 3 nM | 2 nM | 2 nM | 5 nM | 2 nM | 9 nM | Cc1cc2cc(n1)-c1cnn(C)c1OCCN1CC3CCC(C3)(C1)n1c(nc3ccc(N4CC[C@@H](N(C)C)C4)cc31)NC2=O (single isomer, unassigned) [Example B42B] |
| > 5000 nM | > 5000 nM | > 5000 nM | > 5000 nM | 1160 nM | > 5000 nM | 200 nM | > 5000 nM | > 5000 nM | 193 nM | 200 nM | 442 nM | 68 nM | 305 nM | 998 nM | 271 nM | 1320 nM | Cc1cc2cc(n1)-c1cnn(C)c1OCCN1CC3CCC(C3)(C1)n1c(nc3ccc(N4CC5CN(C)CC5C4)cc31)NC2=O (single isomer, unassigned) [Example B43A] |
| > 5000 nM | > 5000 nM | > 5000 nM | > 5000 nM | > 5000 nM | > 5000 nM | 4530 nM | > 5000 nM | > 5000 nM | 470 nM | 454 nM | 850 nM | 114 nM | 392 nM | 3200 nM | 1210 nM | 2300 nM | Cc1cc2cc(n1)-c1cnn(C)c1OCCN1CC3CCC(C3)(C1)n1c(nc3ccc(N4CCC(N5CCOCC5)C4)cc31)NC2=O (single isomer, unassigned) [Example B44A1] |
| > 5000 nM | > 5000 nM | > 5000 nM | > 5000 nM | > 5000 nM | > 5000 nM | > 5000 nM | > 5000 nM | > 5000 nM | 873 nM | 1290 nM | 3820 nM | 343 nM | 1080 nM | 9400 nM | 3760 nM | 3560 nM | Cc1cc2cc(n1)-c1cnn(C)c1OCCN1CC3CCC(C3)(C1)n1c(nc3ccc(N4CCC(N5CCOCC5)C4)cc31)NC2=O (single isomer, unassigned) [Example B44A2] |
| > 5000 nM | > 5000 nM | > 5000 nM | > 5000 nM | 3620 nM | > 5000 nM | 1290 nM | > 5000 nM | > 5000 nM | 239 nM | 363 nM | 10000 nM | 48 nM | 10000 nM | 2850 nM | 10000 nM | 2800 nM | Cc1cc2cc(n1)-c1cnn(C)c1OCCN1CC3CCC(C3)(C1)n1c(nc3ccc(N(C)CCCN(C)C)cc31)NC2=O (single isomer, unassigned) [Example B45A] |
| > 5000 nM | > 5000 nM | > 5000 nM | 4170 nM | 4260 nM | > 5000 nM | 1820 nM | 3460 nM | > 5000 nM | 371 nM | 500 nM | 721 nM | 97 nM | 380 nM | 2990 nM | 417 nM | 2260 nM | Cc1cc2cc(n1)-c1cnn(C)c1OCCN1CC3CCC(C3)(C1)n1c(nc3ccc(N(C)CCN(C)C)cc31)NC2=O (single isomer, unassigned) [Example B47A] |
| > 5000 nM | > 5000 nM | > 5000 nM | > 5000 nM | 481 nM | > 5000 nM | 289 nM | > 5000 nM | > 5000 nM | 325 nM | 606 nM | 750 nM | 57 nM | 353 nM | 931 nM | 550 nM | 1480 nM | Cc1cc2cc(n1)-c1cnn(C)c1OCCN1CC3CCC(C3)(C1)n1c(nc3ccc(N4CCC(N5CCN(C)CC5)C4)cc31)NC2=O (single isomer, unassigned) [Example B49A] |
| 76 nM | 17 nM | 5.6 nM | 8 nM | 5.8 nM | 2.4 nM | 3.5 nM | 3.8 nM | 8 nM | 2 nM | 2 nM | 3 nM | 2 nM | 2 nM | 2 nM | 2 nM | 6 nM | Cc1cc2cc(n1)-c1cnn(C)c1OCCN1CC3CCC(C3)(C1)n1c(nc3ccc(N4CCC(N5CCN(C)CC5)C4)cc31)NC2=O (single isomer, unassigned) [Example B49B] |
| > 5000 nM | > 5000 nM | > 5000 nM | > 5000 nM | 2290 nM | > 5000 nM | 748 nM | > 5000 nM | > 5000 nM | 302 nM | 437 nM | 741 nM | 52 nM | 320 nM | 1280 nM | 377 nM | 1550 nM | Cc1cc2cc(n1)-c1cnn(C)c1OCCN1CC3CCC(C3)(C1)n1c(nc3ccc(N4CCC5(CN(C)C5)C4)cc31)NC2=O (single isomer, unassigned) [Example B50A] |
| > 5000 nM | > 5000 nM | > 5000 nM | > 5000 nM | 3370 nM | > 5000 nM | 1100 nM | > 5000 nM | > 5000 nM | 357 nM | 615 nM | 1080 nM | 124 nM | 383 nM | 2850 nM | 530 nM | 3020 nM | Cc1cc2cc(n1)-c1cnn(C)c1OCCN1CC3CCC(C3)(C1)n1c(nc3ccc(N4CCC5(CCN(C)CC5)C4)cc31)NC2=O (single isomer, unassigned) [Example B51A] |
| > 5000 nM | > 5000 nM | > 5000 nM | > 5000 nM | 3320 nM | > 5000 nM | 1080 nM | 4350 nM | > 5000 nM | 348 nM | 419 nM | 1070 nM | 91 nM | 383 nM | 2570 nM | 388 nM | 3040 nM | Cc1cc2cc(n1)-c1cnn(C)c1OCCN1CC3CCC(C3)(C1)n1c(nc3ccc(N4CC5CC4CN5C)cc31)NC2=O (single isomer, unassigned) [Example B53A] |
